Values quoted from earlier work, collected in PMC6108082 (Journal of medicinal chemistry, 2018).

Tested on: P-glycoprotein

For `CCCc1ccc(-c2ccc(N(C[C@@H](N)[C@@H](C)CC)C(=O)[C@@H]3C[C@H]3c3ccccn3)cc2)cc1.Cl` [compound 1, 2-PCCA], the P-glycoprotein substrate activity is given as “substrate of P-glycoprotein”.
